# Test results published in patent US20070254939A1, “Formulations Containing Amide Derivatives of Carboxylic Acid NSAIDS for Topical Administration to the Eye” (ALCON, INC., priority 2006, published 2007).
# Test system: mitochondria prepared from the livers of male Sprague Dawley rats
# Experiment: in vitro mitochondrial swelling assay (light scattering at 540 nm)
# Format: biochemical, rat
# Details: for swelling response of non-peroxide stressed (control) mitochondria: normal, unstressed mitochondria, test article 100 μM, time course over 17 minutes, FIG. 1
# Procedure: To evaluate the effects of sulfite salts on carboxylic acid NSAID-induced mitochondrial swelling, the following assay was used. […] An initial low speed centrifugation (600×g for 10 minutes) was conducted to remove nuclei and cell debris. The pellet was discarded and the supernatant was centrifuged at 7,740×g for 10 minutes to obtain a crude mitochondrial pellet. […] The suspension was centrifuged at 7,740×g for 10 minutes. The mitochondrial pellet was suspended in 30 mL of ice-cold wash buffer and centrifuged at 10,100×g for 10 minutes. […] The mitochondrial suspension was placed on ice for immediate assay. An aliquot of the mitochondrial preparation was added to a 5.0 mL cuvette (1.0 cm path length) that contained 2.95 mL of iso-osmotic HEPES buffer, supplemented with sodium succinate and rotenone. An appropriate aliquote of the mitochondrial suspension was added to the cuvette and swelling was monitored by light scattering at 540 nm for a period of 17 minutes. When drug effects were examined, mitochondria were initially exposed for a period of one minute to the test article before the addition of either buffer, t-BOOH (150 μM) or sodium sulfite (300 μM).
swelling response of non-peroxide stressed (control) mitochondria,"swelling response of t-BOOH-stressed mitochondria (t-BOOH 150 μM, diclofenac 30, 100 or 300 μM, FIG. 2)",SMILES,"effect of sulfite salt on NSAID-induced swelling of peroxide-stressed mitochondria (t-BOOH 150 μM, sodium sulfite 300 μM with 60 μM amfenac or 60 μM bromfenac, FIG. 3)"
do not affect swelling,,Nc1c(CC(=O)O)cccc1C(=O)c1ccccc1 [amfenac],
do not affect swelling,,Nc1c(CC(=O)O)cccc1C(=O)c1ccc(Br)cc1 [bromfenac],
do not affect swelling,promote the swelling of mitochondria,O=C(O)Cc1ccccc1Nc1c(Cl)cccc1Cl [diclofenac],
do not affect swelling,,CC(C)Cc1ccc(C(C)C(=O)O)cc1 (stereo not drawn) [ibuprofen],
,,O=S([O-])[O-].[Na+].[Na+] [sodium sulfite],mitochondrial swelling is prevented
